From patent US9896433B2, “Antiviral compounds” (priority 2013, dated 2018)

Columns and labels:
Assay in all cases: microbe, parasite or virus in culture
[1] = test system: Pseudotyped HCV GT1b particles (HCVpp, Con1 strain E1/E2); assay type: cell-based, Hepatitis C virus GT1b Con1 strain; conditions: Hepatitis C virus, 72 h, read-out: HCVpp GT-1b (EC50, μM)
[2] = test system: pseudotyped VSV G particles (VSVpp); assay type: cell-based; conditions: Vesicular stomatitis virus, 72 h, read-out: VSVpp (EC50, μM)
[3] = test system: Pseudotyped HCV GT1a particles (HCVpp, H77 strain E1/E2); assay type: cell-based, Hepatitis C virus GT1a H77 strain; conditions: Hepatitis C virus, 72 h, read-out: HCVpp GT-1a (EC50, μM)

Row | Structure (SMILES) | EC50 [1] [µM] | EC50 [2] [µM] | EC50 [3] [µM]
1 | Nc1nc(Nc2ccc(C(F)(F)F)nc2)n[nH]1 [Compound 2, N^3-(6-Trifluoromethyl-pyridin-3-yl)-1H-[1,2,4] triazole-3,5-diamine] | ≥ 100 | ≥ 100 | 75.4
2 | Nc1nc(Nc2cc(C(F)(F)F)ccn2)n[nH]1 [Compound 6, N^3-(4-Trifluoromethyl-pyridin-2-yl)-1H-[1,2,4] triazole-3,5-diamine] |  | ≥ 100 | 62.2
3 | Cn1ncc2cc(Nc3n[nH]c(N)n3)ccc2c1=O [Compound 10, 6-(5-Amino-1H-[1,2,4]triazol-3-ylamino)-2-methyl-2H-phthalazin-1-one] | 3.68 | ≥ 100 | 
4 | Nc1nc(Nc2ccnc(Cl)c2)n[nH]1 [Compound 1, N^3-(2-Chloro-pyridin-4-yl)-1H-[1,2,4]triazole-3,5-diamine] | 48.9 | ≥ 100 | 2.76
5 | Nc1nc(Nc2ccn3ccnc3c2)n[nH]1 [Compound 12, N^3-Imidazo[1,2-a]pyridin-7-yl-1H-[1,2,4]triazole-3,5-diamine] | > 100 | > 100 | 
6 | Nc1nc(Nc2cccc(C(F)(F)F)n2)n[nH]1 [Compound 4, N^3-(6-Trifluoromethyl-pyridin-2-yl)-1H-[1,2,4] triazole-3,5-diamine] | ≥ 100 | ≥ 100 | ≥ 100
7 | Nc1nc(Nc2cc(Cl)nc(Cl)c2)n[nH]1 [Compound 3, N^3-(2,6-Dichloro-pyridin-4-yl)-1H-[1,2,4]triazole-3,5-diamine] | 7.08 | ≥ 100 | 0.191
8 | Nc1nc(Nc2ccc3nccn3c2)n[nH]1 [Compound 11, N^3-Imidazo[1,2-a]pyridin-6-yl-1H-[1,2,4]triazole-3,5-diamine] |  | ≥ 100 | 22.3
9 | Cn1nc(Cl)cc(Nc2n[nH]c(N)n2)c1=O [Compound 8, 4-(5-Amino-1H-[1,2,4]triazol-3-ylamino)-6-chloro-2-methyl-2H-pyridazin-3-one] | ≥ 100 | ≥ 100 | 
10 | CC(C)(C)c1csc(Nc2n[nH]c(N)n2)n1 [Compound 5, N^3-(4-tert-Butyl-thiazol-2-yl)-1H-[1,2,4]triazole-3,5-diamine] |  | ≥ 100 | ≥ 100
11 | Nc1nc(Nc2csc(Cl)c2)n[nH]1 [Compound 7, N^3-(5-Chloro-thiophen-3-yl)-1H-[1,2,4]triazole-3,5-diamine] |  | ≥ 100 | 16.4
12 | Nc1nc(Nc2ccc3c(=O)[nH]ncc3c2)n[nH]1 [Compound 9, 6-(5-Amino-1H-[1,2,4]triazol-3-ylamino)-2H-phthalazin-l-one] | 4.71 | ≥ 100 | 
